Data from the supplement of paper PMC10307832.

Legend:
Assay in all cases: relative viability (nuclei count vs DMSO), 5 days (fraction); higher = more cells survive
[1] = compound: N=C(N)NC(=N)NCCc1ccccc1 [Phenformin] (anchor plate); details: 250 µM
How it was run: (§1)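 Five library-drug doses spaced by √10 were pinned onto vehicle-anchored 1536-well plates of lung cancer cell lines that had been kept overnight at 37 °C. Cells went 5 days without medium change, then were fixed, permeabilised and Hoechst-stained together, imaged at 4× and counted by MetaXpress. Viability is the ratio of treated-well to vehicle-well nuclei, taken as a median over plates. Plates required control CV below 25% and at least one doubling.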

[2] = compound: O=C(Nc1c[nH]nc1-c1nc2ccc(CN3CCOCC3)cc2[nH]1)NC1CC1 [AT9283]
How it was run: as §1

[3] = compound: C#Cc1cccc(Nc2ncnc3cc(OCCOC)c(OCCOC)cc23)c1 [Erlotinib]
How it was run: as §1

| Cell Line | relative viability [1] | relative viability ([2]; 0.003 µM) | relative viability ([2]; 0.03 µM) | relative viability ([2]; 0.09487 µM) | relative viability ([2]; 0.3 µM) | relative viability ([3]; 0.02 µM) | relative viability ([3]; 0.2 µM) | relative viability ([3]; 0.6325 µM) | relative viability ([3]; 2 µM) |
| --- | --- | --- | --- | --- | --- | --- | --- | --- | --- |
| A-427 | 0.323 | 0.929 | 0.453 | 0.264 | 0.242 | 1.03 | 0.957 | 1.08 | 1.01 |
| NCI-H460 | 0.529 | 0.985 | 0.931 | 0.542 | 0.21 | 0.994 | 0.959 | 1.05 | 0.96 |
| NCI-H1734 | 0.42 | 0.925 | 0.47 | 0.336 | 0.27 | 1.02 | 0.869 | 0.996 | 0.934 |
| NCI-H2009 | 0.485 | 1.03 | 0.859 | 0.423 | 0.26 | 1.07 | 0.998 | 1.08 | 0.996 |
| NCI-H1993 | 0.497 | 0.961 | 0.907 | 0.59 | 0.497 | 0.965 | 0.748 | 0.714 |  |
